Type in all cases: cell-based
One assay has as its system HIV LTR. In words: Reactivation of the HIV LTR in latently infected J-Lat clones (GFP by flow cytometry). As to conditions: J-Lat clones, TNFα 20 ng/ml or PHA 1.5 μg/ml, 16 hours. The protocol:
(§1) GFP expression was measured by flow cytometry. FIGS. 3B and 3C shown the percentage of cells positive for GFP (FIG. 3B) and the mean MFI of GFP (FIG. 3C) in latently infected cell lines, J-Lat clones 82, A72, A7, A2, and A1, at 16 hours after TNFα or PHA was added in the cultures in the presence of JQ1(+) or JQ1(−). […] GFP expression in cells was measured by flow cytometry and is indicated as percent of GFP+ cells in gated live cell populations. An average of 5 experiments is shown. * p<0.05, ** p<0.01, *** p<0.001. […] Average of 3 experiments is shown. * p<0.05. For FIG. 3F, J-Lat A2 and A72 cells were reactivated with TNFα (20 ng/ml) or HIV Tat protein (50 μg/ml) in the presence of JQ1(+) or JQ1(−) for 16-18 hours, and GFP expression in cells was measured by flow cytometry. One representative experiment is shown. In each dot plot, non-underlined numbers indicate percentage of GFP+ cells and underlined numbers indicate mean fluorescence of GFP (MFI).
(§2) Next, the effect of JQ1 on activation of the HIV LTR was tested using a latently infected Jurkat-derived cell clone, J-Lat clone A2. GFP expression in J-Lat clone A2 is induced upon reactivation with tumor necrosis factor-alpha (TNFα) or phytohaemagglutinin (PHA).
To further study the mechanism of how JQ1 drives reactivation of HIV latency, HIV latently infected T-cell lines—J-Lat clones A1, A2, A7, and A72—were utilized. The effect of JQ1(+) on reactivation of HIV latency in these cell lines were confirmed. TNFα (20 ng/ml) or PHA (1.5 μg/ml) was added to cultures of J-Lat clones in the presence of 1 μM JQ1(+) or JQ1(−). After 16 hours, expression of GFP was measured by flow cytometry. […] In the presence of HIV Tat, BET antagonism enhances Tat-driven transcription of the HIV LTR in J-Lat clones A2 and A72 (FIG. 3F; underlined numbers indicate mean GFP fluorescence, non-underlined numbers indicate percent of GFP+ cells). […] Displacement of Brd4 from chromatin by JQ1(+) may cause conformational change in the chromatin, exposing NF-κb binding sites, leading to increased HIV transcription and reactivation of latency.

A further assay has as its system HIV-1 NL43. In words: Viral integration in primary resting CD4 T-cells by Alu-PCR. As to conditions: NL43, 1 μM, T48 h. Here is the method: To determine if JQ1(+) affects viral integration in primary resting CD4 T-cells, the cells were purified and infected with HIV-1 NL43 or mock control. The infected cells were then cultured in the presence of 1 μM of JQ1(+) or JQ1(−) for 48 hours. Cell pellets were collected at 0 hours and 48 hours after infection. DNA was isolated and the viral integration in resting CD4 T-cells was measured by Alu-PCR.

The subject of another assay is HIV-1 LTR promoter. The assay can be described thus: Activation of the HIV LTR in CEMss LTR-GFP reporter cells (GFP by flow cytometry). As to conditions: CEMss LTR-GFP cells, 8 μg/ml HIV-1 Tat alone. The protocol: CEMss LTR-GFP cells were infected with NL43 and cultured in the presence of the BET antagonists JQ1(+) (1 μM) or the control enantiomer JQ1(−). GFP expression in cells was examined by flow cytometry. A representative of three experiments is shown. FIG. 2B provides a graph showing GFP expression in cells when cultured with different amounts of JQ1, as determined by flow cytometry. 0.25 μM of JQ1(+) was sufficient to dramatically increase the expression of GFP in NL43 infected CEMss LTR-GFP cells. FIGS. 2C and 2D show percentage of GFP expression (FIG. 2C) and mean fluorescence of GFP (MFI; FIG. 2D) in CEMss LTR-GFP cells cultured in the presence of JQ1(+) or JQ1(−) (1 μM), and different amount of HIV-1 Tat. FIG. 2E provides dot plots of CEMss LTR-GFP cells were cultured with increasing amounts of HIV Tat (0, 8, 16 or 32 μg/ml) in the presence of JQ1(+) or JQ1(−) (1 μM) for 1 day. Non-underlined numbers indicate percentage of GFP and underlined numbers indicate mean fluorescence of GFP (MFI).
as §1
BET antagonists also drive activation of the HIV LTR. Specifically, the effects of JQ1 on transcription from the HIV LTR were tested. CEMss LTR-GFP cells (a reporter cell line stably transfected with GFP under the control of the HIV-1 LTR promoter) were infected with NL43 and cultured in the presence of BET antagonists or controls. GFP expression was measured at days 0, 1, 2, 3, and 6 post-infection. GFP expression was higher in the presence of the BET inhibitor (JQ1) compared to controls (FIG. 2A). Further, by varying the amount of JQ1, it was determined that 0.25 μM of JQ1(+) was sufficient to dramatically increase Tat-driven HIV-1 transcription (FIG. 2B). CEMss LTR-GFP cells were also cultured in the presence of JQ1(+) or JQ1(−) (1 μM) and different amount of HIV-1 Tat (0-32 μg/ml). […] FIG. 2E provides dot plots of the experiments.
as §2

With TNFα, in the assay with HIV LTR, the “GFP expression (reactivation of latently infected cells)” value was “induced GFP expression”.
With `Cc1sc2c(c1C)C(c1ccc(Cl)cc1)=N[C@@H](CC(=O)OC(C)(C)C)c1nnc(C)n1-2` [JQ1(−)], the provirus/cell turned out to be 0.527 ± 0.064 provirus/cell in the assay with HIV-1 NL43 (Exp. 1, primary resting CD4 T-cells) and 0.400 ± 0.0009 provirus/cell in the assay on HIV-1 NL43 (Exp. 2, primary resting CD4 T-cells).

B1: HIV-1 Tat: HIV Tat protein added to reporter cell cultures (protein, UniProt P04608 1-86, looked up)
Protein Tat: MEPVDPRLEPWKHPGSQPKTACTNCYCKKCCFHCQVCFITKALGISYGRKKRRQRRRAHQNSQTHQASLSKQPTSQPRGDPTGPKE
For the molecule B1, the “Expression of GFP (percentage)” value in the assay on HIV-1 LTR promoter is “activated”.

Values taken from patent publication US9387231B2, “Compositions comprising a Brd4 antagonist and methods for the treatment of HIV” (THE CHILDREN'S HOSPITAL OF PHILADELPHIA, priority 2011, dated 2016).
